Experimental data: patent publication US8552013B2, “Heterocyclic compounds based on N6-substituted adenine, methods of their preparation, their use for preparation of drugs, cosmetic preparations and growth regulators, pharmaceutical preparations, cosmetic preparations and growth regulators containing these compounds” (USTAV Experimentalni Botaniky Akademie Ved Ceske Republiky, priority 2001, dated 2013)
Where “and” joins values, the source holds several entries; their conditions need not be identical. Equal values may be shown once. Read-outs that look alike come from different tables or passages of the source. Blank lines part the entries; values can stand above or below the compound they belong to.

Columns and labels:
[1] = test system: Human lymphocytes; experiment: Immunosuppressive activity, 3H-thymidine incorporation in concanavalin A activated lymphocytes; assay type: cell-based; details: Lymphocyte, 72 hours, [3H]-TdR, read-out: Human lymphocytes ED50
Text: One of the most important parameters of specific cellular immunity is proliferative response of lymphocytes to antigens or polyclonal mitogens. The majority of normal mammalian peripheral lymphocytes comprise resting cells. Antigens or nonspecific polyclonal mitogens have the capacity to activate lymphoid cells and this is accompanied by dramatic changes of intracellular metabolism (mitochondrial activity, protein synthesis, nucleic acids synthesis, formation of blastic cells and cellular proliferation). […] Variety of in vitro assays was developed to measure proliferative response of lymphocytes. The most commonly used is ^3H-thymidine incorporation method.
During cell proliferation, DNA has to be replicated before the cell is divided into two daughter cells. This close association between cell doublings and DNA synthesis is very attractive for assessing cell proliferation. If labelled DNA precursors are added to the cell culture, cells that are about to divide incorporate the labelled nucleotide into their DNA. Traditionally, those assays usually involve the use of radiolabelled nucleosides, particularly tritiated thymidine ([^3H]-TdR). The amount of [^3H]-TdR incorporated into the cellular DNA is quantified by liquid scintillation counting.
Human heparinized peripheral blood was obtained from healthy volunteers by cubital vein punction. The blood was diluted in PBS (1:3) and mononuclear cells were separated by centrifugation in Ficoll-Hypaque density gradient (Pharmacia, 1.077 g/ml) at 2200 rpm for 30 minutes. Following centrifugation, lymphocytes were washed in PBS and resuspended in cell culture medium (RMPI 1640, 2 mM glutamine, 100 U/ml penicillin, 100 μg/ml streptomycin, 10% fetal calf serum and sodium bicarbonate).
The cells were diluted at target density of 1,100,000 cells/ml were added by pipette (180 μl) into 96/well microtiter plates. Four-fold dilutions of the intended test concentration were added at time zero in 20 μl aliquots to the microtiter plate wells. Usually, test compound was evaluated at six 4-fold dilutions. In routine testing, the highest well concentration was 266.7 μM. All drug concentrations were examined in duplicates. All wells with exception of unstimulated controls were activated with 50 μl of concanavalin A (25 μg/ml). Incubations of cells with test compounds lasted for 72 hours at 37° C., in 5% CO2 atmosphere and 100% humidity. At the end of incubation period, the cells were assayed by using the [^3H]-TdR:
Cell cultures were incubated with 0.5 μCi (20 μl of stock solution 500 μCi/ml) per well for 6 hours at 37° C. and 5% CO2. The automated cell harvester was used to lyse cells in water and adsorb the DNA onto glass-fiber filters in the format of microtiter plate. The DNA incorporated [^3H]-TdR was retained on the filter while unincorporated material passes through. The filters were dried at room temperature overnight, sealed into a sample bag with 10-12 ml of scintillant. The amount of [^3H]-TdR present in each filter (in cpm) was determined by scintillation counting in a Betaplate liquid scintillation counter. The effective dose of immunosuppressant (ED) was calculated using the following equation: ED=(CCPMdrug exposed well/mean CCPMcontrol wells)×100%. The ED50 value, the drug concentration inhibiting proliferation of 50% of lymphocytes, was calculated from the obtained dose response curves.

[2] = test system: breast carcinoma cell line MCF-7; experiment: Calcein AM cytotoxicity, MCF7; assay type: cell-based, human; details: read-out: IC 50, MCF7
How it was run: (§1)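 Cells in DMEM with 10% FCS, pre-incubated 24 h, then exposed to six 4-fold compound dilutions in duplicate for 72 h at 37 °C, 5% CO2. Viability read by Calcein AM fluorescence after 1 h further incubation.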

[3] = test system: T-lymphoblastic leukemia cell line CEM; experiment: Calcein AM cytotoxicity, CEM; assay type: cell-based, human
How it was run: as §1

[4] = test system: K-562; experiment: Calcein AM cytotoxicity, K-562; assay type: cell-based; details: read-out: IC 50, K-562
How it was run: as §1

[5] = test system: senescent human skin fibroblasts; experiment: Morphology of senescent cells; assay type: cell-based; details: for appearance of senescent cells on longer treatment: 14 days, ortho and meta 80 μM and above; for appearance of senescent cells: after 7 days of treatment (para: 7 days and 14 days; meta: low concentrations)
Experimental: All experiments were performed on early and mid passage cultures (about 20 to 40% lifespan completed) of normal human adult skin fibroblast line; designated ASF-2 & Senetek cell line (about 10-90% lifespan completed); designated as SF20. In order to check the effects of test compounds on senescent cells, late passage cells with more than 95% lifespan completed were used. ASF-2 and SF20 cell lines were established from a mammary skin biopsy obtained from a young, non-smoking and healthy […] at the time of breast reduction operation. Normal culture conditions of medium (DMEM) containing antibiotics, 10% foetal calf serum, and incubation at 37° C. with 95% humidity were used. The effects of the test chemicals were determined in the following conditions:
Senescent human skin fibroblasts were treated with various doses of para-topolin to see if this treatment could reverse age-related alterations in their morphology. […] The cells progressively became heterogeneous with large and flattened appearance.

[6] = test system: human skin fibroblasts; experiment: Cell survival, MTT assay; assay type: cell-based; details: 3 days
Experimental: Cell survival after exposure to various doses was measured with the 3-(4,5 dimethylthiazol-2-yl)-2,5-diphenyltetrazolium bromide (MTT) assay. About 5,000 cells were seeded per well in a 96-well plate 24 h before the experiment. Cells were then treated with various doses of the compound to be tested. The wells were washed in Hank's and new medium was added. After three days, MTT (Sigma, M2128) was added at 0.5 mg/ml in medium. After 4 h, MTT was removed and isopropanol and HCl were added to dissolve the MTT crystals for 12-16 h. The absorbance at 595 nm was measured.

EC50 [1]: 2.5 µM
Structure (SMILES): Fc1ccccc1CNc1ncnc2nc[nH]c12 [6-(2-fluorobenzylamino)purine]
IC50 ([2]; 72 hours, listed as 2F BAP): 109 µM and 128 µM | IC50 ([3]; 72 hours, listed as 2F BAP): 136 µM and 98.9 µM | IC50 ([4]; 72 hours): 136 µM and 70.7 µM

Structure (SMILES): Cc1ccccc1CNc1ncnc2nc[nH]c12 [6-(2-methylbenzylamino)purine]
IC50 ([2]; Homo sapiens, MCF7, 72 h): > 167 µM | IC50 ([3]; Homo sapiens, 72 h): > 167 µM | IC50 ([4]; Homo sapiens, K562, 72 h): 157 µM

EC50 [1]: 18.2 µM
Structure (SMILES): Fc1cccc(CNc2ncnc3nc[nH]c23)c1 [6-(3-fluorobenzylamino)purine]

Structure (SMILES): Ic1cccc(CNc2ncnc3nc[nH]c23)c1 [6-(3-iodobenzylamino)purine]
IC50 ([2]; Homo sapiens, MCF7, 72 h): 130 µM | IC50 ([3]; Homo sapiens, 72 h): 125 µM | IC50 ([4]; Homo sapiens, K562, 72 h): 94.7 µM

Structure (SMILES): COc1cccc(CNc2ncnc3nc[nH]c23)c1 [6-(3-methoxybenzylamino)purine]
IC50 ([2]; 72 hours, listed as 3MeO BAP): 150 µM

Structure (SMILES): Cc1ccc(CNc2ncnc3nc[nH]c23)cc1 [6-(4-methylbenzylamino)purine]
IC50 ([2]; Homo sapiens, MCF7, 72 h): 82.8 µM | IC50 ([3]; Homo sapiens, 72 h): 72.1 µM | IC50 ([4]; Homo sapiens, K562, 72 h): 72.8 µM

Structure (SMILES): Oc1cccc(CNc2ncnc3nc[nH]c23)c1 [meta-topolin, 6-(3-hydroxybenzylamino)purine]
EC50 [1]: 5.6 µM | effects on morphology of senescent cells ([5]; 200 μM and above, within 7 days): some negative effects | appearance of senescent cells on longer treatment [5]: unhealthy and sick | appearance of senescent cells [5]: no significant differences | cells that did survive treatment [6]: 60% | cells killed ([6]; between 0.01 and 1 μM): about 40% | IC50 ([4]; 72 hours, listed as MT): 140 µM

Structure (SMILES): Oc1ccccc1CNc1ncnc2nc[nH]c12 [ortho-topolin, 6-(2-hydroxybenzylamino)purine]
appearance of senescent cells on longer treatment [5]: unhealthy and sick | appearance of senescent cells [5]: no significant differences | reduction in cell survival ([6]; 200-500 μM): 10-20% | dose until which not cytotoxic / no toxic effect on survival (MTT) ([6]; range 0.01-500 μM): 100 µM
